Results: US9018219B2, “Fused aminodihydropyrimidine derivative” (Shionogi & Co., Ltd., priority 2010, dated 2015)

Columns and labels:
Recombinant human BACE-1 = target: T1, Recombinant human BACE-1 (Homo sapiens, UniProt P56817); assay: Assay of BACE1 inhibitory activity; format: biochemical; conditions: Recombinant human BACE1 7.4 nmol/L, substrate peptide 18 nmol/L, pH 5.0, 30° C. for 3 hours; read-out: IC50 (50% inhibitory concentration against the enzymatic activity)
T1 construct: purchased R&D Systems
Description: 48.5 μL of substrate peptide solution (Biotin-XSEVNLDAEFRHDSGC-Eu: X=ε-amino-n-capronic acid, Eu=Europium cryptate) was added to each well of 96-hole half-area plate (a black plate: Costar), and after addition of 0.5 μl of the compound of the present invention (N,N′-dimethylformamide solution) and 1 μl of Recombinant human BACE-1 (R&D Systems), the reaction mixture was incubated at 30° C. for 3 hours. The substrate peptide was synthesized by reacting Cryptate TBPCOOH mono SMP (CIS bio international) with Biotin-XSEVNLDAEFRHDSGC (Peptide Institute, Inc.). The final concentrations of the substrate peptide and Recombinant human BACE1 were adjusted to 18 nmol/L and 7.4 nmol/L, respectively, and the reaction was performed in sodium acetate buffer (50 mmol/L sodium acetate, pH 5.0, 0.008% Triton X-100). After the incubation for reaction, 50 μl of 8.0 μg/ml Streptavidin-XL665 (CIS bio international) dissolved in phosphate buffer (150 mmol/L K2HPO4—KH2PO4, pH 7.0, 0.008% Triton X-100, 0.8 mol/L KF) was added to each well and left stand at 30° C. for 1 hour. After then, fluorescence intensity was measured (excitation wavelength: 320 nm, measuring wavelength: 620 nm and 665 nm) using Wallac 1420 multilabel counter (Perkin Elmer life sciences). Enzymatic activity was determined from counting ratio of each wavelength (10,000×Count 665/Count 620) and 50% inhibitory concentration against the enzymatic activity (IC50) was calculated.

[1] = test system: Neuroblastoma SH-SY5Y cells (SH/APPwt) with human wild-type β-APP excessively expressed; assay: Measurement of β-amyloid (Aβ) production inhibiting effect in cell; format: cell-based; conditions: 24 hours incubation, Amyloid β 1-40 HTRF in culture supernatant, read-out: IC50 (amount needed to inhibit Aβ production by 50%)
Description: Neuroblastoma SH-SY5Y cells (SH/APPwt) with human wild-type β-APP excessively expressed therein were prepared at 8×10^5 cells/mL, and 150 μl portions thereof were inoculated into each well of a 96-well culture plate (Falcon). The cells were cultured for 2 hours at 37° C. in a 5% gaseous carbon dioxide incubator. Then, a solution which have been preliminarily prepared by adding and suspending the compound of the present invention (DMSO (dimethyl sulfoxide) solution) so as to be 2 μl/50 μl medium was added to the cell sap. Namely, the final DMSO concentration was 1%, and the amount of the cell culture was 200 μl. After the incubation was performed for 24 hours from the addition of the test compound, 100 μl of the culture supernatant was collected from each fraction. The amount of the Aβ in each fraction was measured.
The Aβ amount was measured as follows. 10 μl of a homogeneous time resolved fluorescence (HTRF) measurement reagent (Amyloid β 1-40 peptide; IBA Molecular Holding, S.A.) and 10 μl of the culture supernatant were put into a 384-well half area microplate (black microplate, Costar) and mixed with each other, and then left standing overnight at 4° C. while the light was shielded. Then, the fluorescence intensity (excitation wavelength: 337 nm, measurement wavelength: 620 nm and 665 nm) was measured with Wallac 1420 multilabel counter (Perkin Elmer life sciences). The Aβ amount was determined from the count rate at each measurement wavelength (10000×Count 665/Count 620), and the amount needed to inhibit Aβ production by 50% (IC50) was calculated from at least six different dosages.

CYP2C9 = target: T2, CYP2C9 (Homo sapiens, UniProt P11712); assay: CYP inhibition test (CYP2C9); format: in vitro ADME; conditions: pooled human hepatic microsome 0.2 mg protein/mL, 15 minutes, 37° C.; read-out: IC50 CYP2C9 (tolbutamide methyl-hydroxylation)
T2 construct: enzyme, pooled human hepatic microsome 0.2 mg protein/mL; from tissue
From the text: (§1) Using commercially available pooled human hepatic microsome, and employing, as markers, 7-ethoxyresorufin O-deethylation (CYP1A2), tolbutamide methyl-hydroxylation (CYP2C9), mephenyloin 4′-hydroxylation (CYP2C19), dextromethorphan O-demethylation (CYP2D6), and terfenedine hydroxylation (CYP3A4) as typical substrate metabolism reactions of human main five CYP enzyme forms (CYP1A2, 2C9, 2C19, 2D6, 3A4), an inhibitory degree of each metabolite production amount by a compound of the present invention was assessed. […] After the centrifugation at 3000 rpm for 15 minutes, resorufin (CYP1A2 metabolite) in the supernatant was quantified by a multi-label counter and hydroxytolbutamide (CYP2C9 metabolite), 4′-hydroxymephenyloin (CYP2C19 metabolite), dextrorphan (CYP2D6 metabolite), and terfenadine alcohol metabolite (CYP3A4 metabolite) were quantified by LC/MS/MS. Addition of only DMSO being a solvent dissolving a compound to a reaction system was adopted as a control (100%), remaining activity (%) was calculated and IC50 was calculated by reverse presumption by a logistic model using a concentration and an inhibition rate.

CYP2C19 = target: T3, CYP2C19 (Homo sapiens, UniProt P33261); assay: CYP inhibition test (CYP2C19); format: in vitro ADME; conditions: pooled human hepatic microsome 0.2 mg protein/mL, 15 minutes, 37° C.; read-out: IC50 CYP2C19 (mephenyloin 4′-hydroxylation)
T3 construct: enzyme, pooled human hepatic microsome 0.2 mg protein/mL; from tissue
From the text: as §1

T3 sequence (P33261 whole entry): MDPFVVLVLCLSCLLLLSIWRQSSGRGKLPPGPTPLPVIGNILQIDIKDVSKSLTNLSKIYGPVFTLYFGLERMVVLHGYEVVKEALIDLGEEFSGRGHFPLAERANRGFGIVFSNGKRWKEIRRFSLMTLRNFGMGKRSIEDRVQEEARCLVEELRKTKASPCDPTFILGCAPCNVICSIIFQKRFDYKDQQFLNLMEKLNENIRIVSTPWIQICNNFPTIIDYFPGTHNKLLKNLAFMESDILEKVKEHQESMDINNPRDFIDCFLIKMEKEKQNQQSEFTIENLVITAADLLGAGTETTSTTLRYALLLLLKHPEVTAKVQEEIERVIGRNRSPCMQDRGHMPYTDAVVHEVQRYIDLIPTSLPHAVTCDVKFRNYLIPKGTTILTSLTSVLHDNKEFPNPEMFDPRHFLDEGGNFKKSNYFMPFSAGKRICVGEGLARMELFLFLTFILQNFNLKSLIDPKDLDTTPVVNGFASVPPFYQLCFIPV
T2 sequence (P11712 whole entry): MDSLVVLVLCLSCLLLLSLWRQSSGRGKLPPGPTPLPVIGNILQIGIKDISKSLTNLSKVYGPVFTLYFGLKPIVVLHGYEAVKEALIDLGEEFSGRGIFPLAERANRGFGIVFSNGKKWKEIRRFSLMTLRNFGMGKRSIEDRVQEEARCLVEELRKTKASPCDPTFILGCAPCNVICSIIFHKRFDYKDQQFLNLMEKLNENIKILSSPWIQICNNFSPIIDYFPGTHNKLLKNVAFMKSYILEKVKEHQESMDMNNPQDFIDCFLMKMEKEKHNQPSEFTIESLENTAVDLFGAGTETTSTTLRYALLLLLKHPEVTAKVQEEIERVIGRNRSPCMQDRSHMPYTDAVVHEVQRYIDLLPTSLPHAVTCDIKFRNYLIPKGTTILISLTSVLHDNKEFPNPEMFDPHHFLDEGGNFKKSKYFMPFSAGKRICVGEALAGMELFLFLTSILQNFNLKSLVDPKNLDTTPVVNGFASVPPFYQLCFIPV
T1 sequence (P56817 46-501): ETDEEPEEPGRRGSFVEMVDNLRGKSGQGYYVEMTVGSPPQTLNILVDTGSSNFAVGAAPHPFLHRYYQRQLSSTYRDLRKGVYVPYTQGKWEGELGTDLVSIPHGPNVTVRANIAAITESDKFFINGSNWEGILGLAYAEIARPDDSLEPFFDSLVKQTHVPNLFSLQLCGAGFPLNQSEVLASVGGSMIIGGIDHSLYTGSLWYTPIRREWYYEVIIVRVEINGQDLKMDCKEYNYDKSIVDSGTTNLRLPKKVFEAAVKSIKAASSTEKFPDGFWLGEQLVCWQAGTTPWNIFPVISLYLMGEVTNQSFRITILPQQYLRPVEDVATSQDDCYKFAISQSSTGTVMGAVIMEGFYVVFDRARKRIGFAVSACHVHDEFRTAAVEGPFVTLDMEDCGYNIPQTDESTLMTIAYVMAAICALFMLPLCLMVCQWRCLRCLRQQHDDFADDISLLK

- IC50 (Recombinant human BACE-1): ≤ 1 µM
- IC50 [1]: ≤ 1 µM
- IC50 (CYP2C9): > 20 µM
- IC50 (CYP2C19): > 20 µM
Structure (SMILES): C[C@@]1(c2cc(-c3cccnc3F)ccc2F)Cc2nccn2C(N)=N1 [Compound I-2]
